Measurements: patent US6303596A, “Use of taurolidine for treatment of leukemias” (priority 2000, dated 2001)
Where two headings read alike, the source gives them in different places.

Experiments:
Assay type in all cases: cell-based, human
[1] = system: MM6 cells; test: growth rate after taurolidine treatment, MM6
Protocol: FIG. 4A and FIG. 4B are graphs depicting cell viability and growth rates following taurolidine treatment as determined by assay procedures. MM6 cells were treated with taurolidine as described in FIG. 3. After aliquots were collected for the lactate dehydrogenase (LDH) assay, the remainder of the culture was rinsed in Hank's balanced salt solution (HBSS) and resuspended in RPMI+10% BCS without taurolidine. Counts of trypan blue-negative cells represented in FIG. 4A and total cell number represented in FIG. 4B were recorded daily thereafter (with the measurement at Day 1 being made immediately after the four hour taurolidine treatment). […]
FIGS. 5A and 5B depict cell viability and growth rates for MM6 cell line following taurolidine treatment, in terms of % trypan blue negative cells and % cell number, respectively. […] Counts of trypan blue-negative cells (FIG. 5A), and total cell number (FIG. 5B), were recorded daily thereafter (with the measurement at Day 1 being made immediately after the 4 hour taurolidine treatment). […] Doubling times were determined under each condition, and expressed as a percentage of the rate of doubling of untreated cells. […]
In these experiments, integrity of cell membranes following taurolidine treatment was assessed by exclusion of trypan blue and by measuring the release of LDH in MM6, K-562, HL-60, and REH cells. […]

[2] = system: granulocytes; test: TUNEL / propidium iodide flow cytometry, granulocytes; details: for cytotoxicity at 100 µg/mL: Homo sapiens
Protocol: Human granulocytes were isolated from heparinized blood by diluting blood 1:1 with 6% dextran to sediment RBC, then centrifuging to obtain leukocyte rich plasma. The remaining RBC were lysed by 20 second incubation with 0.2% NaCl. After lysis, NaCl was added to a final concentration of 0.9%, the sample was centrifuged, and the cell pellet resuspended in HBSS containing 0.5% HSA. An equal volume of Histopaque (Sigma) was layered underneath the cell suspension. Upon centrifugation, the PBMC remained above the Histopaque layer, while the granulocytes were sedimented. Purity of collected granulocytes was assayed by flow cytometry using PE-conjugated […].
In the second method, DNA fragmentation was detected via TUNEL assay according to the manufacturer's instructions. With this methodology, 2×10^6 cells were fixed with 2% paraformaldehyde, permeabilized with 0.1% Triton X-100/0.1% citrate, incubated at 37° C. with terminal deoxynucleotidyl transferase and FITC-dUTP, rinsed and analyzed by flow cytometry. Enhanced FITC signal indicates apoptosis-specific DNA fragmentation. Gavriali, et al, "Identification of programmed cell death in situ via specific labeling of nuclear DNA fragmentation," J Cell Biol 119:493 (1992). Parallel aliquots of unfixed cells were treated with PI and FITC-conjugated anti-CD14 and analyzed by flow cytometry, in order to identify cells with permeable cell membranes (since PI binds to DNA but is excluded from cells with intact plasma membranes) and also to determine the cell-specificity of the apoptotic signal.
The effect of taurolidine on granulocytes was assayed by TUNEL analysis on taurolidine-treated purified granulocytes. These experiments were conducted in culture medium rather than whole blood. Granulocytes were treated with 100 μg/ml taurolidine since it had been shown that this concentration of taurolidine is apoptogenic to peripheral blood monocytes treated in culture medium. TUNEL-positive granulocytes ranged from 2% to 30% in untreated samples, and varied according to blood donor. […] Therefore, the apoptogenic effect of taurolidine is not specific to monocytic cells.
^a Analysis by flow cytometry after staining cells with PI and
processing for TUNEL. Data are mean ± SEM of 5 experiments.

[3] = system: HL-60; test: LDH release (cell membrane integrity), HL-60
Protocol: FIGS. 7A and 7B depict cell viability and growth rates for HL-60 cell line following taurolidine treatment, in terms of % trypan blue negative cells and % cell number, respectively. Cells were treated with various concentrations of taurolidine for 4 hours in AIM-V+0.01% BCS. After aliquots were collected for LDH assay, the remainder of the culture was rinsed in HBSS and resuspended in RPMI+10% BCS without taurolidine. Counts of trypan blue-negative cells (FIG. 7A), and total cell number (FIG. 7B), were recorded daily thereafter (with the measurement at Day 1 being made immediately after the 4 hour taurolidine treatment). Conditions were: no treatment (open circles); 25 μg/ml taurolidine (closed circles); 50 μg/ml taurolidine (open squares); 100 μg/ml taurolidine (closed squares); and vehicle alone (closed triangles). Doubling times were determined under each condition, and expressed as a percentage of the rate of doubling of untreated cells. These values are located to the right of the growth curves in (FIG. 7B). Cells were subcultured when they reached a concentration of 6×10^5 cells/ml. Data are mean±SEM of three experiments.
In these experiments, integrity of cell membranes following taurolidine treatment was assessed by exclusion of trypan blue and by measuring the release of LDH in MM6, K-562, HL-60, and REH cells. Since BCS contains significant amounts of LDH, these experiments were conducted on cells cultured in AIM-V+0.01% BCS. Four hour treatment of cells was conducted in AIM-V containing 0.01% BCS in order to allow subsequent LDH assay without interference from BCS (which occurs in when normal culture medium, containing 10% BCS, is used). Thus, MM6 cells (5×10^5 cells/ml) were treated with taurolidine for four hours in AIM-V+0.01% BCS, after which an aliquot of the cell suspension was removed for measurement of LDH release. A parallel aliquot of cells was lysed by three cycles of freeze/thaw and the quantity of LDH released was taken to be 100%. […]
^a LDH was measured immediately after four hour taurolidine treatment.

O=S1(=O)CCN(CN2CCS(=O)(=O)NC2)CN1 [taurolidine, 4,4'-methylenebis(perhydro-1,2,4-thiadiazin 1,1-dioxide)]
growth rate after return to growth medium ([1]; MM6, 25 μg/ml taurolidine for 4 h): growth rates similar to that observed with untreated cells
growth after return to growth medium ([1]; MM6, 50 μg/ml taurolidine for 4 h): failed to grow
apoptosis of granulocytes ([2]; 100 μg/ml taurolidine, within 6 h, culture medium): 92%
cytotoxicity at 100 µg/mL ([2]; 6 h, granulocytes, 100 μg/ml taurolidine, mean ± SEM of 5 experiments (Table VII), read-out: % propidium iodide positive): 1.6 ± 0.5%
cytotoxicity at 100 µg/mL ([2]; granulocytes, 100 μg/ml, 6 hours (Table V), read-out: % Propidium Iodide Positive Cells): 2%
effectiveness in granulocytes relative to monocytes ([2]; TUNEL, purified cells in culture medium): at least as effective
% TUNEL-positive ([2]; granulocytes, 100 μg/ml taurolidine, mean ± SEM of 5 experiments (Table VII)): 91.5 ± 3.5%
% TUNEL-Negative Cells ([2]; granulocytes, 100 μg/ml, 6 hours (Table V)): 8%
LDH in culture medium, % of that released by completely lysed cells ([3]; HL-60, control 2.3±0.8%, 240 min): 8.3±2.3%
cytotoxicity at 50 µg/mL ([3]; Homo sapiens, HL-60, 50 μg/ml, 4 h, read-out: LDH (% of total)): 5%
cytotoxicity at 100 µg/mL ([3]; Homo sapiens, HL-60, 100 μg/ml, 4 h, read-out: LDH (% of total)): 6%
